This is an account of results in patent US8598157B2, “5-alkynyl-pyridines” (Boehringer Ingelheim International GmbH, priority 2011, dated 2013).

The target in one test is PI3Kalpha (Homo sapiens (Human), UniProt P42336). As to the kind of experiment: Inhibition of PI3Kalpha-induced PIP-2 phosphorylation (filter-binding assay). To be noted: 33P-ATP, p85alpha/His-p110alpha, read-out: IC50 PI3Kα. Type of test: biochemical. From the text:
Inhibition of PI3Kalpha-Induced PIP-2 Phosphorylation
This PI3Kalpha assay provides an IC50 value indicative of the activity of the compounds to inhibit PI3 kinase alpha activity. Inhibition of PI3 kinase would be expected to be indicative of activity in treating conditions of excessive or anomalous cell proliferation, such as cancers. See also J. A. Engelman, Nature Reviews Cancer, 2009, 9, 550-562; A. Carnero, Expert Opin. Investig. Drugs, 2009, 18, 1265-1277 and P. Liu et al., Nature Reviews Drug Discovery, 2009, 8, 627-64.
Method Type: Filter-Binding-Assay
Aliquoted in desired amounts and stored at −80° C. Final assay concentration 25 ng/well • Phosphotyrosin PDGFRbeta-peptide H-CGG-pY-[…]-pY-VPMLDM-NH2 was synthesized by Jerini Peptide Technologies (JPT) and used in a final conc. of 1.7 μM (stock 100 μM prepared in Assay buffer with DTT, aliquoted in desired amounts and stored at −80° C.) • Cold ATP (from Sigma; A-7699), 100 μM stock solution in H2O, use 1 μM final concentration in assay • [33P]-ATP, 370 MBq/ml from Amersham (#AH9968), use 0.5 μCi/well (10 mCi/ml) • Clear 96-well plates from Greiner (#655 162) • Filter plates: Perkin Elmer UniFilter GF/B #6005177 • Microscint 0 (from Perkin Elmer, #6013611) 2. Assay Procedure
The substrate-containing lipid vesicles are dissolved to a concentration of 0.637 mg lipid blend/ml assay buffer (with BSA, freshly added) in 50 ml Falcon->keep on ice, followed by ultrasonication (pulse of 15 sec followed by a pause of 10 sec, 4×). Compounds are serially diluted in assay buffer+6% DMSO and […] of each dilution is added per well of a 96-well plate (compounds are tested in duplicates) and mixed with 30 μl of the lipid vesicles containing PDGFR-Peptide ([…]) and PI3K alpha (25 ng/well final). The mixture is then incubated for 20 minutes at room temperature. Subsequently, 20 μl of assay buffer containing […] cold ATP and 0.5 μCi/20 μl 33P-ATP are added. The plates are then incubated at room temperature for 120 minutes (shaking with 300 rpm).
The reaction mix is transferred onto filter plates using “filtermate harvester” from Packard: filter plates are rinsed with PBS, then the reaction mix is filtered onto the filter plate, washed 5 times with PBS and are allowed to dry for 30-60 minutes at 50° C.
The plate bottom is sealed with Perkin Elmer white adhesive foil and 25 μl/well Microscint( ) are added, the top is covered with transparent adhesive foil and the plate is measured with Wallac Trilux 1450 Microbeta Counter.
As positive control serve wells containing vehicle controls (1% DMSO in assay buffer), showing non-inhibited kinase activity (high values). Wells containing assay buffer instead of enzyme can serve as control for background activity (low values).
Calculate IC50 values using the Smiley program (based on GrapPad Prism)

The test system of a further test is H460 cells. Nature of the test: alamarBlue H460 cell assay (antiproliferative/cytotoxicity). To be noted: NCI-H460; H460 human lung carcinoma cells. The test is classed as cell-based. From the text:
(§1) The H460, MB453, U87, MCF7 and BT474 alamarBlue cell assays provide EC50 values indicative of the antiproliferative or cytotoxic effects of the compounds to respectively the H460 (human non small cell line cancer), MB-453 (breast cancer cell line), U87 (glioblastoma cell line), MCF7 (breast cancer cell line) and BT474 (breast cancer cell line). As known in the field, antiproliferative or cytotoxic effect against this cell lines would be expected to be indicative of activity in treating lung, breast and brain cancers. See R. Marone R et al. Biochim. Biophys. Acta. 2008 January; 1784(1):159-85. S. Yaguchi et al., J. Natl. Cancer Inst. 2006 Apr. 19; 98(8):545-56.
(§2) Method Type: Antiproliferative/Cytotoxicity
(§3) alamarBlue® is designed to provide a rapid and sensitive measure of cell proliferation and cytotoxicity in various human and animal cell lines. The assay is based on the reduction of alamarBlue in the reducing environment of living (metabolically active) cells. In the presence of added cytotoxic or antiproliferative compounds, the innate metabolic activity ceases.
(§4) AlamarBlue is soluble and stable in culture medium. Measurements are made fluorometrically by exciting at 530-560 nm and measuring emission at 590 nm. In reporting percent alamarBlue reduction by monitoring fluorescence, data are expressed as fluorescence emission intensity units as a function of time of incubation.
(§5) 3. Equipment • 96-well plates, flat bottom (Falcon, Cat. No.: 353072) • 96-well plates, U-shaped (Costar, Cat. No.: 3799) • CO2-Incubator • Microplate Reader, Spectramax Plus, Molecular Devices 4. Typical Procedure • Day 0: Seed 3000 BT-474 cells (IMDM/5% FCS, 1% NEAA, 1% Sodiumpyruvat) in 150 μl medium into a 96-well plate, flat bottom (include mediumblank). Incubate plates at 37° C. in a CO2 incubator overnight. • Day 1: Dilute compounds to a concentration 40 μM->1:3 in medium, 10 dilution steps, in 96-well plates. • Add 50 μl per well of each dilution (total volume per well 200 μl; final conc. of cpds: 10 μM->1:3). If required, test further dilutions. • All concentrations are tested in duplicates. • Controls: Cells w/o cpd. (+50 μl medium/DMSO). • Cells are incubated with compounds for 5-6 days. • Day 6 or 7: Add 25 μl of alamarBlue solution to each well and incubate for 8 hours at 37° C. Measure fluorescence by exciting at 530-560 nm and measuring emission at 590 nm. 5. Evaluation • Subtract average value for medium blank from sample readings • Calculate EC50 using GraphPad Prism (Fifty)
In general terms: Resazurin is reduced to fluorescent resorufin, in cell work by metabolically active cells.

The test system of the next test is MB453 cells. As to the kind of experiment: alamarBlue MB453 cell assay (antiproliferative/cytotoxicity). Type of test: cell-based. The note with it: Homo sapiens; MDA MB 453 breast cancer cell line.
From the text: as §1, §2, §3, §4, §5

The subject of another test is U87 cells. Nature of the test: U87 cell assay (antiproliferative/cytotoxicity). Type of test: cell-based. The note with it: U-87MG human glioblastoma cells.
From the text: as §1, §2, §3, §4, §5

For another test, the system named is MCF7 cells. As to the kind of experiment: alamarBlue MCF7 cell assay (antiproliferative/cytotoxicity). Type of test: cell-based. The note with it: MCF7 human breast cancer cell line.
From the text: as §1, §2, §3, §4, §5

For the next test, the system named is BT474 cells. Nature of the test: alamarBlue BT474 cell assay (antiproliferative/cytotoxicity). Type of test: cell-based. The note with it: BT-474 human breast cancer cell line.
From the text: as §1, §2, §3, §4, §5

Sequence of PI3Kalpha (P42336 whole entry): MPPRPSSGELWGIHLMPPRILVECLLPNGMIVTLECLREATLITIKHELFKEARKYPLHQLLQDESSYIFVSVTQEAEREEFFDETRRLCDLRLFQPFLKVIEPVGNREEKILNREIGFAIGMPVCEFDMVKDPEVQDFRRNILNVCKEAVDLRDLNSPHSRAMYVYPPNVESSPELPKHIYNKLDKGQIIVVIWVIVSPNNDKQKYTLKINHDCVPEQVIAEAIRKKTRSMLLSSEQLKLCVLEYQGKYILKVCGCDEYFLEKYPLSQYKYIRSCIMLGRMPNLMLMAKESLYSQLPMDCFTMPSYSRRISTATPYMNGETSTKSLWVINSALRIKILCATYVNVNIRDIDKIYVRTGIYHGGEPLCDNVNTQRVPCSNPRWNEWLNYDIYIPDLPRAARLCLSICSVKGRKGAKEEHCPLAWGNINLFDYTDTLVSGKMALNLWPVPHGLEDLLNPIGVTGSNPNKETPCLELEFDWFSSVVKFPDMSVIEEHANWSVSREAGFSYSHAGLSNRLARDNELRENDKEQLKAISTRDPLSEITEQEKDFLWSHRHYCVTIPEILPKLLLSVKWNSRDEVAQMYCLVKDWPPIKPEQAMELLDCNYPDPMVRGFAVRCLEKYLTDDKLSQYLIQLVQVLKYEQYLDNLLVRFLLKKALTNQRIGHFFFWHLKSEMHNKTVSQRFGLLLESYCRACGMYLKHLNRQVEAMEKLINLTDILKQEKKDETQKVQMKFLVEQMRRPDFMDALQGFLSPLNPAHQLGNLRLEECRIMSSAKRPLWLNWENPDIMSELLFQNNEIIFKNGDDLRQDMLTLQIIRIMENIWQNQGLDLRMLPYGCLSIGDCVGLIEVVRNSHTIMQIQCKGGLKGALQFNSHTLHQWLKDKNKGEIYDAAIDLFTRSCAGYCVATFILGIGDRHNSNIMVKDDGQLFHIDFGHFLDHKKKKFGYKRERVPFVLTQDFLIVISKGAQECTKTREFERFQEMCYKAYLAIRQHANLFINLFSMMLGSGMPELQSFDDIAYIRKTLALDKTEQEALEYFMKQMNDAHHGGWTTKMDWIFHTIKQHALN

On to `COc1ncc(C#Cc2c(C)ncnc2N2CCOCC2)cc1NS(=O)(=O)c1ccccc1` [Example I-1, N-[2-Methoxy-5-(4-methyl-6-morpholin-4-yl-pyrimidin-5-ylethynyl)-pyridin-3-yl]-benzenesulfonamide], for which the IC50 (in general, the point on the concentration scale where inhibition reaches its midpoint) at PI3Kalpha is 0.4 nM. For the same compound, the 50% effective concentration (EC50) – broadly, the concentration at which the effect is half-maximal – in the test on H460 cells was 19 nM; with MB453 cells, 47 nM; in the test with U87 cells, 55 nM; in the test with MCF7 cells, 4 nM; with BT474 cells it was 14 nM.

Turning to `Cc1ncc(C#Cc2c(C)ncnc2N2CCOCC2)cc1NS(=O)(=O)c1ccccc1F` [Example I-2, 2-Fluoro-N-[2-methyl-5-(4-methyl-6-morpholin-4-yl-pyrimidin-5-ylethynyl)-pyridin-3-yl]-benzenesulfonamide], the IC50 at PI3Kalpha is 0.65 nM. Further, the EC50 in the test on H460 cells came to 234 nM; in the test on MB453 cells it was 168 nM; in the test on U87 cells it was 342 nM; in the test on MCF7 cells, 43 nM; in the test with BT474 cells, 148 nM.

In the case of `CCCS(=O)(=O)Nc1cc(C#Cc2c(C)ncnc2N2CCOCC2)cnc1C` [Example I-3, Propane-1-sulfonic acid [2-methyl-5-(4-methyl-6-morpholin-4-yl-pyrimidin-5-ylethynyl)-pyridin-3-yl]-amide], the half-inhibitory concentration (IC50) on PI3Kalpha amounted to 5 nM. For the same compound, the EC50 in the test on H460 cells was 315 nM; in the test with MB453 cells, 777 nM; in the test with U87 cells it was 529 nM; in the test on MCF7 cells, 451 nM; in the test with BT474 cells, 1040 nM.

Take `COc1cccc(S(=O)(=O)Nc2cc(C#Cc3c(C)ncnc3N3CCOCC3)cnc2C)c1` [Example I-4, 3-Methoxy-N-[2-methyl-5-(4-methyl-6-morpholin-4-yl-pyrimidin-5-ylethynyl)-pyridin-3-yl]-benzenesulfonamide]: the IC50 at PI3Kalpha stood at 1 nM. The EC50 in the test with H460 cells stood at 114 nM; in the test with MB453 cells it was 294 nM; in the test with U87 cells, 467 nM; in the test on MCF7 cells, 296 nM; in the test on BT474 cells it was 246 nM.

Take `Cc1ncc(C#Cc2c(C)ncnc2N2CCOCC2)cc1NS(=O)(=O)c1ccccc1Cl` [Example I-5, 2-Chloro-N-[2-methyl-5-(4-methyl-6-morpholin-4-yl-pyrimidin-5-ylethynyl)-pyridin-3-yl]-benzenesulfonamide]: the half-maximal inhibitory concentration (IC50) at PI3Kalpha turned out to be 1 nM. Further, the concentration giving a half-maximal response (EC50) was 64 nM in the test with H460 cells; 202 nM with MB453 cells; 271 nM with U87 cells; 61 nM with MCF7 cells; 152 nM with BT474 cells.

For `Cc1ncc(C#Cc2c(C)ncnc2N2CCOCC2)cc1NS(=O)(=O)c1cccc(F)c1` [Example I-6, 3-Fluoro-N-[2-methyl-5-(4-methyl-6-morpholin-4-yl-pyrimidin-5-ylethynyl)-pyridin-3-yl]-benzenesulfonamide], on PI3Kalpha, the 50% inhibitory concentration (IC50) was 1 nM. Also, the EC50 in the test with H460 cells came to 130 nM; in the test with MB453 cells it was 259 nM; with U87 cells, 368 nM; in the test on MCF7 cells it was 75 nM; in the test with BT474 cells, 194 nM.

For the compound `Cc1ncc(C#Cc2c(C)ncnc2N2CCOCC2)cc1NS(=O)(=O)c1c(F)cccc1F` [Example I-7, 2,6-Difluoro-N-[2-methyl-5-(4-methyl-6-morpholin-4-yl-pyrimidin-5-ylethynyl)-pyridin-3-yl]-benzenesulfonamide], the IC50 on PI3Kalpha stood at 0.8 nM. Also, the EC50 in the test on H460 cells turned out to be 108 nM; in the test on MB453 cells it was 146 nM; in the test on U87 cells, 223 nM; with MCF7 cells it was 38 nM; with BT474 cells, 82 nM.

As to `Cc1ncc(C#Cc2c(C)ncnc2N2CCOCC2)cc1NS(=O)(=O)c1ccccc1Br` [Example I-8, 2-Bromo-N-[2-methyl-5-(4-methyl-6-morpholin-4-yl-pyrimidin-5-ylethynyl)-pyridin-3-yl]-benzenesulfonamide], the IC50 on PI3Kalpha came out at 1 nM. Further, the concentration giving a half-maximal response (EC50) came out at 47 nM with H460 cells; 143 nM in the test with MB453 cells; 205 nM in the test with U87 cells; 46 nM with MCF7 cells; 134 nM in the test on BT474 cells.

Take `Cc1ncc(C#Cc2c(C)ncnc2N2CCOCC2)cc1NS(=O)(=O)c1cn(C)cn1` [Example I-9, 1-Methyl-1H-imidazole-4-sulfonic acid [2-methyl-5-(4-methyl-6-morpholin-4-yl-pyrimidin-5-ylethynyl)-pyridin-3-yl]-amide]: on PI3Kalpha, the IC50 is 1 nM. Besides, the EC50 in the test on H460 cells was 1460 nM; in the test with MB453 cells, 1070 nM; with U87 cells, 1450 nM; in the test on MCF7 cells, 748 nM; with BT474 cells, 856 nM.

For the compound `CCc1ncnc(N2CCC(OC)CC2)c1C#Cc1cnc(C)c(NS(C)(=O)=O)c1` [Example I-45, N-{5-[4-Ethyl-6-(4-methoxy-piperidin-1-yl)-pyrimidin-5-ylethynyl]-2-methyl-pyridin-3-yl}-methanesulfonamide], at PI3Kalpha, the IC50 stood at 4 nM. Further, the EC50 with H460 cells came to 141 nM; in the test on MCF7 cells it was 62 nM; in the test on BT474 cells it was 284 nM.

In the case of `CCc1ncnc(N2CCC(O)CC2)c1C#Cc1cnc(C)c(NS(C)(=O)=O)c1` [Example I-46, N-{5-[4-Ethyl-6-(4-hydroxy-piperidin-1-yl)-pyrimidin-5-ylethynyl]-2-methyl-pyridin-3-yl}-methanesulfonamide], the EC50 in the test on H460 cells worked out at 880 nM; with MCF7 cells it was 397 nM; in the test on BT474 cells it was 1270 nM.

With `Cc1ncc(C#Cc2c(C)ncnc2N2CCOCC2)cc1NS(=O)(=O)c1cnn(C)c1` [Example I-51, 1-Methyl-1H-pyrazole-4-sulfonic acid [2-methyl-5-(4-methyl-6-morpholin-4-yl-pyrimidin-5-ylethynyl)-pyridin-3-yl]-amide], the half-maximal effective concentration (EC50) in the test with H460 cells stood at 196 nM; in the test on MB453 cells, 199 nM; in the test with U87 cells, 315 nM; in the test with MCF7 cells it was 12 nM; in the test with BT474 cells it was 311 nM.
